In one experiment the test system is SNL model. Kind of experiment: Antiallodynic activity on Chung model (SNL, spinal nerve ligation; von Frey). It is filed as in vivo, Sprague-Dawley rats. Particulars: 0.5 h, rat, oral, read-out: SNL model: effect (%) at the concentration administered. The procedure:
Male. Sprague-Dawley rats (200-220 g, Orient Bio, Korea) were habituated for 1 week before the experiment and allowed free access to food and water throughout the experimentation. Room temperature and humidity were maintained at 24±2° C. and 50±10%, respectively. Neuropathic surgery (SNL, Spinal nerve ligation) model was clone as described in Kim and Chung (1992). Briefly, animal under gaseous anesthesia with isoflurane a 4:4 flow ratio of NO2. The left lumber spinal nerve L5 and L6 were isolated and tightly ligated with 4-0 silk thread. The wound was treated with a gentamicin antibiotics solution (4 mg/kg, 4 ul/g, bw), and the wound muscle was closed with cat cut chrom 4/0 thread and skin was closed dafilon 4/0 tread. Sham controls were prepared in the same manner as the spinal nerves were exposed, but no ligated L5 and L6 nerves. But, vehicle controls were identical to SNL model, except for administration of vehicles.
(§1) Tactile sensitivity (Mechanical allodynia) was evaluated using von Frey monofilaments before and after treatment and animals were used withdrawal threshold value was less than 4 g. One week after surgery, SNL-operated animals (n=4˜6), sham-operated animals (n=4˜10) and vehicle-operated animals (n=4˜13) were tested for tactile sensitivity with von Frey monofilaments 3 trials in each animal. All Animals were placed in a stainless steel mashed chamber and habituated for 30 min in the test box. The tactile sensitivity for ipsilateral hind paw was measured using the up-and-down method (Dixon, 1980) with seven von Frey monofilaments (0.4, 1, 2, 4, 6, 8, and 15 g) to 3 trials. Tactile sensitivity test was followed by Dixon's method (Dixon, 1980). The 50% paw withdrawal threshold for each paw was calculated using the following formula: [Xth] log=[vFr] log+ky where [vFr] is the force of the last von Frey used, k=0.2249 which is the average interval (in log units) between the von Frey monofilaments, and y is a value that depends upon the pattern of withdrawal responses (Dixon, 1980).
All animals were fasted 18 h before the administration of the compounds. The antiallodynic effect of the compounds were evaluated at the various dose (n=5˜6), orally administrated in a volume of 5 ul/g, bw in a vehicle of 30% (v/v) PEG 400 or 20% (v/v) Tween 80 or Saline. […]
The relative values compared to the sham group (% control) were calculated and shown in Table 5, which show an antiallodynic effect of the test compounds on SNL model in rats.

Another experiment relates to CFA-induced pain model. Kind of experiment: Antiallodynic activity on Complete Freund's Adjuvant (CFA)-induced inflammatory pain model (von Frey). Type of experiment: in vivo, Sprague-Dawley rats. Particulars: 0.5 h, 0.5 h, rat, intraperitoneal; for response vs control in vivo at 40 mg/kg / response vs control in vivo at 18 mg/kg / response vs control in vivo at 60 mg/kg: Rattus norvegicus, ip, read-out: CFA model: effect (%) at the concentration administered. The procedure: Male, Sprague-Dawley rats (200-220 g, Nara Bio, Korea) were habituated for 1 week before surgery and allowed free access to food and water throughout the experimentation. Room temperature and humidity were maintained at 24±2° C. and 50±10%, respectively.
CFA-induced inflammatory pain was induced by the procedure of Nagakura et al. (2003) and Gregory P. et al. (2010) with minor modifications. CFA (sigma, USA) was injected in the left plantar with a 100 ul volume under gaseous anesthesia with isoflurane a 4:4 flow ratio of NO2 Sham controls were injected with 100 ul of saline and vehicle controls were identical to CFA infusion model, except for administration of vehicles.
as §1, with “treatment,” for “treatment”, “CFA-infused” for “SNL-operated”, “(n=12),” for “(n=4˜10)”, “(n=17)” for “(n=4˜13)”
[…] The test was performed peak time of efficacy (0.5 hr) after compound administration.
The relative values compared to the sham (% control) were calculated and shown in Table 4, which show an antiallodynic effect of the compound of Examples on CFA-induced pain model in rats.

`CC1(C)O[C@H](COS(N)(=O)=O)[C@@H](Cc2ccccc2Cl)O1` [Example 146, ((4R,5R)-5-(2-chlorobenzyl)-2,2-dimethyl-1,3-dioxolan-4-yl)methyl sulfamate]: the response vs control in vivo at 90 mg/kg with SNL model came out at 45.8%. Also, in the experiment with CFA-induced pain model, the response vs control in vivo at 40 mg/kg was 16.5%.
Turning to `Cc1ccccc1[C@@H]1OC(C)(C)O[C@H]1COS(N)(=O)=O` [Example 92, ((4S,5S)-5-(2-methylphenyl)-2,2-dimethyl-1,3-dioxolan-4-yl)methyl sulfamate], in the experiment on SNL model, the response vs control in vivo at 50 mg/kg amounted to 37.3%. The response vs control in vivo at 18 mg/kg with CFA-induced pain model was 22.3%.
In the case of `Nc1ccccc1[C@@H]1OC2(CCCC2)O[C@H]1COS(N)(=O)=O` [Example 72, ((2S,3S)-3-(2-aminophenyl)-1,4-dioxaspiro[4,4]nonan-2-yl)methyl sulfamate], in the experiment with SNL model, the response vs control in vivo at 50 mg/kg is 35.1%. The response vs control in vivo at 40 mg/kg with CFA-induced pain model was found to be 22.6%.
Take `CC1(C)O[C@H](COS(N)(=O)=O)[C@@H](Cc2ccccc2)O1` [Example 122, ((4R,5R)-5-benzyl-2,2-dimethyl-1,3-dioxolan-4-yl)methyl sulfamate]: the response vs control in vivo at 50 mg/kg with SNL model was found to be 64.1%. In the experiment with CFA-induced pain model, the response vs control in vivo at 18 mg/kg came out at 22.3%.
As for `CCC1(CC)O[C@H](COS(N)(=O)=O)[C@@H](Cc2ccccc2)O1` [Example 124, ((4R,5R)-5-benzyl-2,2-diethyl-1,3-dioxolan-4-yl)methyl sulfamate], the response vs control in vivo at 40 mg/kg in the experiment on CFA-induced pain model worked out at 34.2%.
For `NS(=O)(=O)OCC[C@@H]1OC2(CCCCC2)O[C@H]1c1ccccc1Cl` [Example 160, 2-((2S,3S)-3-(2-chlorophenyl)-1,4-dioxaspiro[4,5]decan-2-yl)ethyl sulfamate], the response vs control in vivo at 40 mg/kg with CFA-induced pain model turned out to be 38.4%.
Take `CC1(C)OC(COS(N)(=O)=O)C(c2ccccc2Cl)O1` (mixture of isomers) [Example 3, (5-(2-chlorophenyl)-2,2-dimethyl-1,3-dioxolan-4-yl)methyl sulfamate(SS & RR mixture)]: the “CFA model: effect (%) at the concentration administered” value in the experiment with CFA-induced pain model (60 mg/kg) is reported as “^#60 (24.0%, 0.5 h)”.
As for `CC1(C)O[C@H](CCOS(N)(=O)=O)[C@@H](Cc2ccccc2Cl)O1` [Example 138, 2-((4R,5R)-5-(2-chlorobenzyl)-2,2-dimethyl-1,3-dioxolan-4-yl)ethyl sulfamate], in the experiment with SNL model, the response vs control in vivo at 90 mg/kg stood at 71.4%. Further, the response vs control in vivo at 40 mg/kg in the experiment with CFA-induced pain model worked out at 32.7%.
As to `CC1(C)O[C@@H](CCOS(N)(=O)=O)[C@H](c2ccccc2Cl)O1` [Example 154, 2-((4S,5S)-5-(2-chlorophenyl)-2,2-dimethyl-1,3-dioxolan-4-yl)ethyl sulfamate], the response vs control in vivo at 40 mg/kg with CFA-induced pain model came to 32.1%.
Regarding `CC1(C)OC(COS(N)(=O)=O)C(c2cnccc2Cl)O1` (stereo not shown) [Example 174, (5-(4-chloropyridin-3-yl)-2,2-dimethyl-1,3-dioxolan-4-yl)methyl sulfamate], the response vs control in vivo at 60 mg/kg in the experiment on CFA-induced pain model (60 mg/kg) amounted to 24.7%.
Take `NS(=O)(=O)OCC[C@@H]1OC2(CCCCC2)O[C@H]1c1ccccc1` [Example 136, 2-((2S,3S)-3-phenyl-1,4-dioxaspiro[4,5]decan-2-yl)ethyl sulfamate]: the response vs control in vivo at 18 mg/kg in the experiment on CFA-induced pain model came out at 32.4%.
In the case of `CC1(C)O[C@@H](COS(N)(=O)=O)[C@H](c2ccccc2)O1` [Example 106, ((4S,5S)-5-phenyl-2,2-dimethyl-1,3-dioxolan-4-yl)methyl sulfamate], in the experiment on SNL model, the response vs control in vivo at 50 mg/kg came to 25.4%. For the same molecule, the response vs control in vivo at 18 mg/kg in the experiment with CFA-induced pain model came out at 23.2%.
Regarding `CCC1(CC)O[C@H](CCOS(N)(=O)=O)[C@@H](Cc2ccccc2Cl)O1` [Example 140, 2-((4R,5R)-5-(2-chlorobenzyl)-2,2-diethyl-1,3-dioxolan-4-yl)ethyl sulfamate], the response vs control in vivo at 40 mg/kg with CFA-induced pain model worked out at 37.4%.
As for `NS(=O)(=O)OC[C@@H]1OC2(CCCCC2)O[C@H]1c1ccccc1Cl` [Example 12, ((2S,3S)-3-(2-chlorophenyl)-1,4-dioxaspiro[4,5]decan-2-yl)methyl sulfamate], the response vs control in vivo at 18 mg/kg in the experiment with CFA-induced pain model came out at 48.8%.
Turning to `Nc1ccccc1[C@@H]1OC(c2ccccc2)O[C@H]1COS(N)(=O)=O` (stereo partly drawn) [Example 76, ((4S,5S)-5-(2-aminophenyl)-2-phenyl-1,3-dioxolan-4-yl)methyl sulfamate], the response vs control in vivo at 90 mg/kg in the experiment on SNL model was 22.9%. In the experiment on CFA-induced pain model, the response vs control in vivo at 40 mg/kg stood at 25.7%.
On to `NS(=O)(=O)OC[C@H]1OC2(CCCCC2)O[C@@H]1Cc1ccccc1` [Example 128, ((2R,3R)-3-benzyl-1,4-dioxaspiro[4,5]decan-2-yl)methyl sulfamate], for which, in the experiment with CFA-induced pain model, the response vs control in vivo at 18 mg/kg worked out at 24.5%.
With `CC1(C)OC(COS(N)(=O)=O)C(c2cnc(Cl)nc2)O1` (stereo not shown) [Example 176, (2,2-dimethyl-5-(2-chloropyrimidin-5-yl)-1,3-dioxolan-4-yl)methyl sulfamate], the response vs control in vivo at 60 mg/kg with CFA-induced pain model (60 mg/kg) was determined as 40%.
As to `NS(=O)(=O)OCC[C@H]1OC2(CCCC2)O[C@@H]1Cc1ccccc1` [Example 118, 2-((2R,3R)-3-benzyl-1,4-dioxaspiro[4,4]nonan-2-yl)ethyl sulfamate], the response vs control in vivo at 90 mg/kg in the experiment with SNL model came out at 38.3%. The response vs control in vivo at 40 mg/kg in the experiment on CFA-induced pain model is 25%.
As for `CCC1(CC)O[C@H](CCOS(N)(=O)=O)[C@@H](Cc2ccccc2)O1` [Example 116, 2-((4R,5R)-5-benzyl-2,2-diethyl-1,3-dioxolan-4-yl)ethyl sulfamate], in the experiment with CFA-induced pain model, the response vs control in vivo at 40 mg/kg worked out at 14.5%.
On the same count and under the same terms, then `CC1(C)O[C@H](CCOS(N)(=O)=O)[C@@H](Cc2ccccc2)O1` [Example 114, 2-((4R,5R)-5-benzyl-2,2-dimethyl-1,3-dioxolan-4-yl)ethyl sulfamate], with 29.8%; and `NS(=O)(=O)OC[C@H]1OC2(CCCCC2)O[C@@H]1Cc1ccccc1Cl` [Example 152, ((2R,3R)-3-(2-chlorobenzyl)-1,4-dioxaspiro[4,5]decan-2-yl)methyl sulfamate], with 34.9%.
Regarding `Cc1ncsc1[C@H]1OC(C)(C)O[C@@H]1COS(N)(=O)=O` [Example 167, ((4R,5S)-2,2-dimethyl-5-(4-methylthiazol-5-yl)-1,3-dioxolan-4-yl)methyl sulfamate], the response vs control in vivo at 60 mg/kg with CFA-induced pain model (60 mg/kg) was 38.6%.
`CC1O[C@@H](COS(N)(=O)=O)[C@H](c2ccccc2Cl)O1` (stereo partly drawn) [Example 6, ((4S,5S)-5-(2-chlorophenyl)-2-methyl-1,3-dioxolan-4-yl)methyl sulfamate]: the response vs control in vivo at 60 mg/kg in the experiment with CFA-induced pain model (60 mg/kg) stood at 22.4%.
In the case of `CCC1(CC)O[C@@H](CCOS(N)(=O)=O)[C@H](c2ccccc2)O1` [Example 132, 2-((4S,5S)-5-phenyl-2,2-diethyl-1,3-dioxolan-4-yl)ethyl sulfamate], the response vs control in vivo at 40 mg/kg in the experiment on CFA-induced pain model was found to be 24.8%.
For `CC1(C)O[C@H](c2ccccc2I)[C@@H](COS(N)(=O)=O)O1` [Example 27, ((4R,5R)-5-(2-iodophenyl)-2,2-dimethyl-1,3-dioxolan-4-yl)methyl sulfamate], the response vs control in vivo at 50 mg/kg in the experiment on SNL model stood at 17.3%. The response vs control in vivo at 18 mg/kg with CFA-induced pain model was 20.2%.

(Values after patent publication US9834535B2, “Sulfamate derivative compounds for use in treating or alleviating pain” (Bio-Pharm Solutions Co., Ltd., priority 2013, dated 2017).)
